In US8318757B2, “Substituted isoxazoline compound and pest control agent” (Nissan Chemical Industries, Ltd., priority 2007, dated 2012):

Tests used:
Assay type in all cases: in vivo
Cat Flea = assay: Mortality Test for Cat Flea; conditions: Ctenocephalides felis, 96 h
Method: To the bottom surface and the side surface of a petri dish having an inner diameter of 5.3 cm, 400 μL of an acetone solution in which 4 mg of the compound of the present invention was dissolved in 40 mL of acetone (concentration: 100 ppm) was applied and then acetone was volatilized to form a thin film of the compound of the present invention on the inner wall of the petri dish. […] In the petri dish, ten Ctenocephalides felis imagines (male and female were mixed) were released and the petri dish was capped and stored in a thermostat room of 25° C. The number of killed imagines after 4 days was measured and the mortality was calculated from the same calculation formula as that in Test Example 1. Here, the test was carried out on the single sample.

Spodoptera exigua = assay: Mortality Test for Spodoptera exigua; conditions: in Brassica oleracea, 144 h
Method: A 10% emulsifiable concentrate of the compound of the present invention (depending on the type of the compound, a 10% wettable powder was subjected to the test) was diluted with water containing a spreader to prepare a drug solution in a concentration of 100 ppm. In this drug solution, a leaf of cabbage was immersed for about 10 seconds and was air-dried and then put into a petri dish. In the petri dish, five 2 instar larvae of Spodoptera exigua per petri dish were released and the petri dish was capped and stored in a thermostatic room of 25° C. The number of killed larvae after 6 days was measured and the mortality was calculated from the same calculation formula as that in Test Example 1. Here, the test was carried out on the duplicate samples.

Aculops pelekassi = assay: whole plant or invertebrate; conditions: 144 h
Method: In a styrol cup having an inner diameter of 7 cm, a wet filtration paper was laid and on the paper, a leaf of mandarin orange cut out so as to have the same diameter as the inner diameter of the cup was laid, followed by inoculating ten larvae of Aculops pelekassi per leaf with the leaf. A 10% emulsifiable concentrate of the compound of the present invention (depending on the type of the compound, a 10% wettable powder was subjected to the test) was diluted with water containing a spreader to prepare a drug solution in a concentration of 100 ppm. The drug solution was sprayed using a rotary spray tower in an amount of 2.5 mL per styrol cup, and the cup was capped and stored in a thermostatic room of 25° C. The number of killed larvae after 6 days was measured and the mortality was calculated from the same calculation formula as that in Test Example 1. Here, the test was carried out on the duplicate samples.

American Dog Tick = assay: Mortality Test for American Dog Tick; conditions: Dermacentor variabilis, 96 h; thin film in petri dishes, applied drug 0.1 μg/cm^2; protonymphs; after 4 days
Method: To the bottom surface and the side surface of two petri dishes having an inner diameter of 5.3 cm, 400 μL of an acetone solution in which 4 mg of the compound of the present invention was dissolved in 40 mL of acetone (concentration: 100 ppm) was applied and then acetone was volatilized to form a thin film of the compound of the present invention on the inner wall of the petri dishes. […] In one of the petri dishes, ten American dog tick (Dermacentor variabilis) protonymphs (male and female were mixed) were released, and the petri dish was capped with the other petri dish. […] The number of killed protonymphs after 4 days was measured and the mortality was calculated from the same calculation formula as that in Test Example 1. Here, the test was carried out on the single sample.

CSC(SC)C(=O)NCc1ccc(C2=NOC(c3cc(C(F)(F)F)cc(C(F)(F)F)c3)(C(F)(F)F)C2)cc1Cl (stereo not shown) [1-206, N-[4-[5-[3,5-bis(trifluoromethyl)phenyl]-5-trifluoromethyl-4,5-dihydroisoxazole-3-yl]-2-chlorophenyl]methyl-2,2-bis(methylthio)acetamide]
≥ 80%: mortality at 1 µg/cm2 (Cat Flea) | mortality at 100 ppm (Spodoptera exigua) | mortality at 100 ppm (Aculops pelekassi) | mortality at 0.1 µg/cm2 (American Dog Tick)
